Target: T1, recombinant human CL receptor/RAMP1 (Homo sapiens, UniProt O60894+Q16602)
T1 construct: expressed in transfected cells
Experiment: Recombinant receptor functional assay (cAMP, HTRF)
Assay type: cell-based
Settings: HEK 293 cells expressing human CL receptor/RAMP1; antagonism of 1.2 nM human α-CGRP-stimulated cAMP
Description: RECOMBINANT RECEPTOR: Human CL receptor (Genbank accession number L76380) was subcloned into the expression vector pIREShyg2 (BD Biosciences Clontech) as a 5′NheI and 3′ PmeI fragment. Human RAMP1 (Genbank accession number AJ001014) was subcloned into the expression vector pIRESpuro2 (BD Biosciences Clontech) as a 5′NheI and 3′NotI fragment. HEK 293 cells (human embryonic kidney cells; ATCC #CRL-1573) were cultured in DMEM with 4.5 g/L glucose, 1 mM sodium pyruvate and 2 mM glutamine supplemented with 10% fetal bovine serum (FBS), 100 units/mL penicillin and 100 μg/mL streptomycin, and maintained at 37° C. and 95% humidity. Cells were subcultured by treatment with 0.25% trypsin with 0.1% EDTA in HBSS. Stable cell line generation was accomplished by co-transfecting 10 μg of DNA with 30 μg Lipofectamine 2000 (Invitrogen) in 75 cm^2 flasks. CL receptor and RAMP1 expression constructs were co-transfected in equal amounts. […]
RECOMBINANT RECEPTOR FUNCTIONAL ASSAY: Cells were resuspended in DMEM/F12 (Hyclone) supplemented with 1 g/L BSA and 300 μM isobutyl-methylxanthine. […] Raw data were transformed into concentration of cAMP using a standard curve then dose response curves were plotted and inflection point (IP) values were determined.

T1 sequence (Q16602 23-461): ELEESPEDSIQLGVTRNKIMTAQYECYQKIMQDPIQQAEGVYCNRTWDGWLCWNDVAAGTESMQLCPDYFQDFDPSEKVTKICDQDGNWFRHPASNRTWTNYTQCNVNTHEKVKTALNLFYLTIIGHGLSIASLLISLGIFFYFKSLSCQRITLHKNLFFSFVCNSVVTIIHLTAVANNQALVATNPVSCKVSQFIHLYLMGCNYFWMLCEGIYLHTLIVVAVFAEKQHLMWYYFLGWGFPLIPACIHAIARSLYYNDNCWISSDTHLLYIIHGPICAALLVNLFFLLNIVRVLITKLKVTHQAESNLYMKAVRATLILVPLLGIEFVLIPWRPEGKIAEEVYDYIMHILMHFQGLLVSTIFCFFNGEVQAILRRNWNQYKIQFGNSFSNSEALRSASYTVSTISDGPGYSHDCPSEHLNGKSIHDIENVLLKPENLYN
T1 sequence (O60894 27-148): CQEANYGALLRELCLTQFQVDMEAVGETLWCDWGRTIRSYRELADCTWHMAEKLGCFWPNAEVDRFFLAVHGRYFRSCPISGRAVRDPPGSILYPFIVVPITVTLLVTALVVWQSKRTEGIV

IC50: 89 nM
Structure (SMILES): C[C@@H]1[C@H](c2ccccc2)C[C@H](NC(=O)c2ccc3c(c2)CC2(C3)OC(=O)Nc3ncccc32)C(=O)N1CC(F)(F)F (stereo partly drawn) [Example 1, N-((3S,5S,6R)-6-Methyl-2-oxo-5-phenyl-1-(2,2,2-trifluoroethyl)piperidin-3-yl)-2′-oxo-1,1′,2′,3-tetrahydrospiro[indene-2,4′-pyrido[2,3-d][1,3]oxazine]-5-carboxamide]

— US20150087641A1, “HETEROCYCLIC CGRP RECEPTOR ANTAGONISTS” (Merck Sharp & Dohme Corp., priority 2012, published 2015)
